Test in all cases: NCI anticancer screen, dose series, 48 h
Assay [1] concerns SR leukemia.
Assay [2] has as its system BT-549 breast.
The subject of assay [3] is OVCAR-5 ovarian.
Assay [4] relates to HOP-62 NSCLC.
In assay [5] the test system is NCI-H460 lung.
Assay [6] deals with A498 renal.

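Where inhibition never reached the appropriate level, the endpoint shown equals the highest concentration tested. Otherwise, values were interpolated linearly from a five-concentration, 48-hour dose response in 96-well plates. TGI marks complete inhibition of growth.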 Bounds are passed on as bounds.

For `O=C(Nc1ccccc1)N(C1=NCC(CI)S1)c1ccc(F)cc1F` (stereo not given), the TGI is 65.7 µM in assay [1], 89.4 µM in assay [2], greater than 100 µM in assay [3] and greater than 100 µM in assay [4].
With `CCCCCCOc1ccc(C(=O)NO)cc1`, the TGI in assay [1] was found to be 23.6 µM; in assay [2] it was 72.8 µM; in assay [5], 20.8 µM; in assay [3], 40.4 µM; in assay [6], 28.1 µM; in assay [4] it was 38.4 µM.
In the case of `CCOC(=O)CSc1nnc2cc(CN3CCCC3)c(-c3ccc(Cl)cc3)nn12`, the TGI in assay [1], in assay [2], in assay [5], in assay [3], in assay [6] and in assay [4] was greater than 100 µM each time.
With `Cc1ccc(Nc2c(C#N)[n+]([O-])c3cc(Cl)ccc3[n+]2[O-])cc1`, the TGI was greater than 36.3 µM in assay [1]; greater than 100 µM in assay [2]; greater than 100 µM in assay [5]; greater than 100 µM in assay [3]; greater than 100 µM in assay [6]; greater than 100 µM in assay [4].
`O=C(N=Nc1cccc(Cl)c1)NNc1cccc(Cl)c1`: the TGI is 90.7 µM in assay [1]; 34.2 µM in assay [5]; 46.5 µM in assay [3]; 44.9 µM in assay [6]; 22.2 µM in assay [4].
On to `CC(=O)Nc1ccc2[nH]c(-c3cccc(Cl)c3)cc(=O)c2c1`, for which the TGI in assay [1], in assay [2], in assay [3] and in assay [4] was greater than 100 µM each time.
For the compound `c1cc2c(c(NC3=NCCO3)c1)CCC2`, the TGI in assay [1], in assay [5], in assay [3], in assay [6] and in assay [4] was greater than 100 µM throughout.
As to `O=P1(Oc2ccccc2)N(CCCl)CCN1c1ccccc1` (stereo not given), the TGI in assay [1], in assay [5], in assay [3], in assay [6] and in assay [4] was greater than 100 µM in each case.
Turning to `CN(C)S(=O)(=O)/N=C/c1cccc(/C=N/S(=O)(=O)N(C)C)c1`, the TGI in assay [2], in assay [5], in assay [3], in assay [6] and in assay [4] was greater than 100 µM throughout.
On to `COC(=O)[C@@H]1CN(C(C)=O)C(=O)N1C(=O)OCc1ccccc1`, for which the TGI in assay [1], in assay [5], in assay [3], in assay [6] and in assay [4] was greater than 100 µM each time.
Consider `c1ccc(CNCCCCNCCCNCc2ccccc2)cc1`, for which the TGI was 56.1 µM in assay [1]; 33.6 µM in assay [2]; 30.2 µM in assay [5]; greater than 100 µM in assay [3]; 60.8 µM in assay [4].
Take `CN(N)c1cc(=O)[nH]c(=O)[nH]1`: the TGI in assay [1] was greater than 100 µM; in assay [2], 50.6 µM; in assay [5], greater than 100 µM; in assay [6] it was greater than 100 µM; in assay [4], greater than 100 µM.
For the compound `COC(CC1(/C=C/O[Si](C(C)C)(C(C)C)C(C)C)C(=O)N(C)c2ccccc21)OC` (stereo not given), the TGI in assay [1], in assay [5], in assay [3], in assay [6] and in assay [4] was greater than 100 µM throughout.
In the case of `C=C[C@@H]1C[C@]2(C(=O)OC)Cc3nc4ccccc4nc3CC(C(=O)OC)=C2O1`, the TGI in assay [2], in assay [5], in assay [3], in assay [6] and in assay [4] was greater than 100 µM in each case.
Consider `CC1=CC[C@@]2(CO)[C@@H]([C@@H]1C)[C@H]1CC[C@@H]3[C@@]4(C)CC[C@H](O)C(C)(C)[C@@H]4CC[C@@]3(C)[C@]1(C)C[C@@H]2O`, for which the TGI in assay [2] was 59.2 µM; in assay [5], greater than 100 µM; in assay [3], greater than 100 µM; in assay [6], 58.8 µM; in assay [4], 39.8 µM.
With `O=C(O)c1cc(/C=C/c2cc(O)ccc2O)ccc1O`, the TGI in assay [1], in assay [2], in assay [5] and in assay [3] was greater than 10 µM in each case.
Consider `O=c1oc2ccccc2c(O)c1/C=N/C(=S)NCCc1ccccc1`, for which the TGI in assay [1] was 41.7 µM; in assay [2], greater than 84.7 µM; in assay [5], greater than 70.3 µM; in assay [3], greater than 100 µM; in assay [4], greater than 100 µM.
Consider `c1ccc([P+](Cc2ccccc2C[P+](c2ccccc2)(c2ccccc2)c2ccccc2)(c2ccccc2)c2ccccc2)cc1`, for which the TGI in assay [2], in assay [5], in assay [3], in assay [6] and in assay [4] was greater than 100 µM in each case.
Take `CCc1n[nH]c(=O)n1/N=C/c1ccc(C)cc1`: the TGI in assay [2], in assay [5], in assay [3], in assay [6] and in assay [4] was greater than 100 µM in each case.
Consider `CCOC(=O)C(C)NC(=O)C(C)NC(=O)C(C)NC(=O)C(C)NC(=O)C(C)NC(=O)OCc1ccccc1` (stereo not given), for which the TGI in assay [1], in assay [2], in assay [5], in assay [3] and in assay [4] was greater than 100 µM in each case.
Regarding `CCN(CC)c1ccc2cc(C(=O)Nc3ccccc3)c(=N)oc2c1`, the TGI in assay [1], in assay [2], in assay [5], in assay [3] and in assay [4] was greater than 100 µM in each case.
`CCOC(=O)[C@@]12C3C=CC(CC3)[C@]1(C(=O)c1ccccc1)C(=O)C(=O)N2c1ccccc1` (stereo not given in full): the TGI in assay [1], in assay [5], in assay [3], in assay [6] and in assay [4] was greater than 100 µM throughout.
In the case of `Cc1nc2c(=O)n(-c3ccccc3)c3ccccc3c2o1`, the TGI in assay [2], in assay [5], in assay [3], in assay [6] and in assay [4] was greater than 100 µM throughout.

The values are drawn from PubChem BioAssay (NCI).
